{"source": "patent US9078868B2", "about": "“Therapeutic agent for accelerating recovery of animal under medical treatment” (UNIVERSITY OF MIYAZAKI, priority 2010, dated 2015)", "key": {"[1]": {"system": "animals under medical treatment with physical conditions worsened by various diseases", "assay": "Example 2: single dose of ghrelin in animals under medical treatment for pathological conditions other than a surgery", "type": "in vivo, canines and felines", "conditions": "for Activity (vigor): animals improved/animals evaluated / Activity (vigor): response rate / Biochemical tests: animals improved/animals evaluated / Biochemical tests: response rate / Hematology tests: animals improved/animals evaluated / Hematology tests: response rate / Body temperature: animals improved/animals evaluated / Body temperature: response rate: single dose", "description": "In these Examples, a canine-derived ghrelin (a peptide compound in which a side chain hydroxyl group of the serine residue at the 3rd position from the amino terminus is acylated with an n-octanoyl group in SEQ ID NO: 1) was used as ghrelin. The canine-derived ghrelin was chemically synthesized and then lyophilized, and a canine-derived ghrelin for administration containing 0.1, 0.3, 0.5, or 1 mg per vial of a canine-derived ghrelin was prepared.\nTo administer ghrelin to animals, the canine-derived ghrelin was dissolved to a concentration of 1 mg/2 mL in physiological saline and intravenously, subcutaneously, or intramuscularly injected after the dose was adjusted depending on the body weight.\nAnimals hospitalized in veterinary hospitals, particularly canines and felines, were used for treatment. These animals may or may not have undergone a surgery for treatment. The surgeries performed on the animals were pyometra surgery, surgical removal of a reproductive organ, surgical removal of mammary gland tumor, ovary cyst surgery, liver cell tumor surgery, disc hernia surgery, diaphragmatic hernia surgery, fracture surgery, gastrointestinal tract surgery, and urethroplasty.\nPhysical conditions in animals with various pathological conditions were examined by measuring parameters including activity (vigor), blood cell test values, biochemical test values, urinalysis, electrolyte tests, body weight, body temperature, the degree of anger or anxiety, respiratory rate, and the like to evaluate the effect of improving physical conditions in the animals. The effect was evaluated by comparing various evaluation parameters before and after administration.\nThe evaluation parameters used were activity (vigor), body temperature, hematology parameters (blood cell test values), serum biochemistry parameters (biochemical test values), the degree of anger or anxiety, and respiratory rate. […] The degree of anger or anxiety of an animal observed visually by an observer were also evaluated using the following criteria: 1. calm and accustomed to a health care professional, 2. able to be touched by but unaccustomed to a health care professional and restless, 3. wandering around or hiding in the kennel with anxiety, 4. able to be barely touched, and 5. too violent to be touched by a health care professional and tends to bite.\nTen animals had two or more diseases concurrently. The diseases including concurrent diseases were as follows: lower urological syndrome, urinary retention, infectious respiratory syndrome, chronic renal failure, osteoarthritis, chronic hepatitis, cystolithiasis, malnutrition, debility, jaundice, circulatory insufficiency, multiple organ failure, pulmonary edema, anemia, tabefaction, diarrhea, vomiting, wheezing, pyrexia, FIV, FELV infection, CPV infection, FVR, a liver disease, filariasis, hemobartonellosis, babesiosis, habu bite, anaphylaxis, a falling accident, rib fracture, and burn.\nOf the animals with these diseases, the evaluation parameters recorded in medical records were as follows: activity (vigor) in 16 animals, biochemistry parameters (biochemical test values) in 11 animals, hematology parameters (blood cell test values) in three animals, and body temperature in one animal."}, "[2]": {"system": "animals which did not ingest food after administration of ghrelin", "assay": "Example 4: improvement in animals which did not ingest food after administration of ghrelin", "type": "in vivo, canines and felines", "excerpt": "Diseases: Rib fracture, chronic renal failure, falling accident, infectious respiratory syndrome, hemobartonellosis, FIV, FELV infection, CPV infection, habu bite, diarrhea, vomiting, mammary gland tumor, traffic accident, fracture surgery, urinary retention, renal failure, urethroplasty, urinary retention, forelimb trauma Number of animals: 15 Activity improved: 11/13 (2, not evaluated; 2 unchanged) GPT value improved: 3/3 GOT value improved: 2/2 BUN value improved: 2/2 CRE value improved: 2/2 CPK value improved: 1/1 ALP value improved: 1/1 WBC value improved: 1/1 (decreased) PLT value improved: 2/2 Body temperature decreased: 2/2"}, "[3]": {"conditions": "multiple organ failure, 1 animal"}, "[4]": {"conditions": "total, 18 animals with various diseases"}, "[5]": {"conditions": "animals which did not ingest food"}}, "note": "No end group written: not given here. *: point of attachment. Octanoyl = CCCCCCCC(=O)*"}
{"substance": "GSS (n-octanoyl) FLSPEHQKLQQRKESKKPPAKLQPR (GSS(Octanoyl)FLSPEHQKLQQRKESKKPPAKLQPR; listed as Canis familiaris) [ghrelin, chemically synthesized, lyophilized]", "values": [{"measurement": "Activity (vigor): animals improved/animals evaluated", "setting": "[1]; accident etc., 3 animals", "value": "3/3"}, {"measurement": "Activity (vigor): response rate", "setting": "[1]; accident etc., 3 animals", "value": 100, "unit": "%"}, {"measurement": "Biochemical tests: animals improved/animals evaluated", "setting": "[1]; accident etc., 3 animals", "value": "1/1"}, {"measurement": "Biochemical tests: response rate", "setting": "[1]; accident etc., 3 animals", "value": 100, "unit": "%"}, {"measurement": "Activity (vigor): animals improved/animals evaluated", "setting": "[1]; anaphylaxis, 1 animal", "value": "1/1"}, {"measurement": "Activity (vigor): response rate", "setting": "[1]; anaphylaxis, 1 animal", "value": 100, "unit": "%"}, {"measurement": "Biochemical tests: animals improved/animals evaluated", "setting": "[1]; anaphylaxis, 1 animal", "value": "1/1"}, {"measurement": "Biochemical tests: response rate", "setting": "[1]; anaphylaxis, 1 animal", "value": 100, "unit": "%"}, {"measurement": "Serum potassium (K) value after administration", "setting": "[1]; animals in the Examples with decreased serum potassium after persistent poor physical conditions", "value": "improved"}, {"measurement": "T-bil after administration", "setting": "[1]; before administration 18.8 mg/dL", "value": 4.9, "unit": "mg/dL"}, {"measurement": "Activity (vigor): animals improved/animals evaluated", "setting": "[1]; debility, 1 animal", "value": "1/1"}, {"measurement": "Activity (vigor): response rate", "setting": "[1]; debility, 1 animal", "value": 100, "unit": "%"}, {"measurement": "Biochemical tests: animals improved/animals evaluated", "setting": "[1]; debility, 1 animal", "value": "1/1"}, {"measurement": "Biochemical tests: response rate", "setting": "[1]; debility, 1 animal", "value": 100, "unit": "%"}, {"measurement": "NH3 after administration", "setting": "[1]; example, before administration 207 μg/dL", "value": 302, "unit": "µg/dL"}, {"measurement": "Cre after administration", "setting": "[1]; example, before administration 3.2 mg/dL", "value": 1.3, "unit": "mg/dL"}, {"measurement": "BUN after administration", "setting": "[1]; example, before administration 72.5 mg/dL", "value": 15.4, "unit": "mg/dL"}, {"measurement": "Body temperature after administration", "setting": "[1]; example, before administration 40.2° C.", "value": 37.8, "unit": "°C"}, {"measurement": "White blood cell count after administration", "setting": "[1]; example, before administration 278×10^2/μL", "value": 16700, "unit": "µL⁻¹"}, {"measurement": "ALP after administration", "setting": "[1]; example, before administration 643 IU/L", "value": 291, "unit": "IU/L"}, {"measurement": "GPT after administration", "setting": "[1]; example, before administration 670 IU/L", "value": 260, "unit": "IU/L"}, {"measurement": "CPK after administration", "setting": "[1]; example, before administration 1166 IU/L", "value": 64, "unit": "IU/L"}, {"measurement": "GOT after administration", "setting": "[1]; example, before administration >1000 IU/L", "value": 187, "unit": "IU/L"}, {"measurement": "Activity (vigor) score after administration", "setting": "[1]; example, before administration a score of 1 (unable to move), scale 1-7", "value": 3}, {"measurement": "Activity (vigor): animals improved/animals evaluated", "setting": "[1]; infection, 8 animals", "value": "6/6"}, {"measurement": "Activity (vigor): response rate", "setting": "[1]; infection, 8 animals", "value": 100, "unit": "%"}, {"measurement": "Biochemical tests: animals improved/animals evaluated", "setting": "[1]; infection, 8 animals", "value": "6/6"}, {"measurement": "Biochemical tests: response rate", "setting": "[1]; infection, 8 animals", "value": 100, "unit": "%"}, {"measurement": "Hematology tests: animals improved/animals evaluated", "setting": "[1]; infection, 8 animals", "value": "1/1"}, {"measurement": "Hematology tests: response rate", "setting": "[1]; infection, 8 animals", "value": 100, "unit": "%"}, {"measurement": "Activity (vigor): animals improved/animals evaluated", "setting": "[1]; liver disease, 1 animal", "value": "1/1"}, {"measurement": "Activity (vigor): response rate", "setting": "[1]; liver disease, 1 animal", "value": 100, "unit": "%"}, {"measurement": "Body temperature: animals improved/animals evaluated", "setting": "[1]; liver disease, 1 animal", "value": "1/1"}, {"measurement": "Body temperature: response rate", "setting": "[1]; liver disease, 1 animal", "value": 100, "unit": "%"}, {"measurement": "Activity (vigor): animals improved/animals evaluated", "setting": "[1]; [3]", "value": "1/1"}, {"measurement": "Activity (vigor): response rate", "setting": "[1]; [3]", "value": 100, "unit": "%"}, {"measurement": "Activity (vigor): animals improved/animals evaluated", "setting": "[1]; renal dysfunction, 3 animals", "value": "3/3"}, {"measurement": "Activity (vigor): response rate", "setting": "[1]; renal dysfunction, 3 animals", "value": 100, "unit": "%"}, {"measurement": "Biochemical tests: animals improved/animals evaluated", "setting": "[1]; renal dysfunction, 3 animals", "value": "1/1"}, {"measurement": "Biochemical tests: response rate", "setting": "[1]; renal dysfunction, 3 animals", "value": 100, "unit": "%"}, {"measurement": "Hematology tests: animals improved/animals evaluated", "setting": "[1]; renal dysfunction, 3 animals", "value": "2/2"}, {"measurement": "Hematology tests: response rate", "setting": "[1]; renal dysfunction, 3 animals", "value": 100, "unit": "%"}, {"measurement": "Activity (vigor): animals improved/animals evaluated", "setting": "[1]; [4]", "value": "16/16"}, {"measurement": "Activity (vigor): response rate", "setting": "[1]; [4]", "value": 100, "unit": "%"}, {"measurement": "Biochemical tests: animals improved/animals evaluated", "setting": "[1]; [4]", "value": "11/11"}, {"measurement": "Biochemical tests: response rate", "setting": "[1]; [4]", "value": 100, "unit": "%"}, {"measurement": "Body temperature: animals improved/animals evaluated", "setting": "[1]; [4]", "value": "1/1"}, {"measurement": "Body temperature: response rate", "setting": "[1]; [4]", "value": 100, "unit": "%"}, {"measurement": "Hematology tests: animals improved/animals evaluated", "setting": "[1]; [4]", "value": "3/3"}, {"measurement": "Hematology tests: response rate", "setting": "[1]; [4]", "value": 100, "unit": "%"}, {"measurement": "Activity improved: animals improved/animals evaluated", "setting": "[2]; 15 animals which did not ingest food, 2 not evaluated, 2 unchanged", "value": "11/13"}, {"measurement": "ALP value improved: animals improved/animals evaluated", "setting": "[2]; [5]", "value": "1/1"}, {"measurement": "BUN value improved: animals improved/animals evaluated", "setting": "[2]; [5]", "value": "2/2"}, {"measurement": "Body temperature decreased: animals improved/animals evaluated", "setting": "[2]; [5]", "value": "2/2"}, {"measurement": "CPK value improved: animals improved/animals evaluated", "setting": "[2]; [5]", "value": "1/1"}, {"measurement": "CRE value improved: animals improved/animals evaluated", "setting": "[2]; [5]", "value": "2/2"}, {"measurement": "GOT value improved: animals improved/animals evaluated", "setting": "[2]; [5]", "value": "2/2"}, {"measurement": "GPT value improved: animals improved/animals evaluated", "setting": "[2]; [5]", "value": "3/3"}, {"measurement": "PLT value improved: animals improved/animals evaluated", "setting": "[2]; [5]", "value": "2/2"}, {"measurement": "WBC value improved (decreased): animals improved/animals evaluated", "setting": "[2]; [5]", "value": "1/1"}]}
